From patent US9708325B2, “Sulfonimidoylpurinone compounds and derivatives for the treatment and prophylaxis of virus infection” (Hoffmann-La Roche Inc., priority 2015, dated 2017)
Values after ≈ are worked out from the molar mass of the structure shown. Where two headings read alike, the source gives them in different places.

Tests used:
human TLR7 = human TLR7 (Homo sapiens (Human), UniProt Q9NYK1); experiment: HEK-Blue-hTLR7 cells assay (SEAP reporter); assay type: cell-based; settings: 20 hrs, read-out: HEK-Blue-hTLR7 (EC50 (μM))
Outline: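 HEK-Blue cells stably carrying human TLR7 and an NF-κB-driven SEAP reporter, preincubated 24 h, then exposed to serially diluted compound (1% DMSO final) for 20 h at 37 °C. Supernatant SEAP measured with QUANTI-Blue substrate, 2 h at 37 °C, absorbance read at 620–655 nm.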

LYSA solubility = assay type: physicochemical; settings: 0.05 M phosphate buffer, pH 6.5, aqueous buffer, thermodynamic from solid
Protocol: LYSA solubility assay is used to determine the aqueous solubility of a compound. Samples were prepared in duplicate from 10 mM DMSO stock solution. […] After one night, the solutions were filtered using a microtiter filter plate. Then the filtrate and its 1/10 dilution were analyzed by HPLC-UV.

CYP3A4 = experiment: Cytochrome P450 induction screening assay, mRNA induction in human cryopreserved hepatocytes; assay type: in vitro ADME; settings: 24 hours exposure
From the text: Induction of cytochrome P450 enzymes is associated with an increased prevalence of clinical drug-drug interactions. The clinical consequences of induction may be therapeutic failure caused by a decreased systemic exposure of the drug itself or a co-administered therapy, or toxicity as a result of increased bioactivation. Cytochrome P450 (CYP450) induction assay has been used to understand the potential drug-drug interaction liabilities in drug discovery stage. Human cryopreserved hepatocytes (Life Technologies, Carlsbad, USA) were thawed and cultured in collagen I coated 96-well plates with a density of 52,000 cells/well. After attachment, hepatocyte maintenance medium (HMM; Lonza, Switzerland) was changed after cells were pre-cultured overnight. […] Medium change was then performed and cells were exposed for 24 hours to test compounds, positive inducer compounds, or vehicle (0.1% DMSO), respectively. At the end of the compound exposure period, medium was removed and cells lysed using 100 μL/well MagNA Pure LC RNA isolation tissue lysis buffer (Roche Diagnostics AG, Rotkreuz, Switzerland). […] mRNA isolation was performed using the MagNA Pure 96 system (Roche Diagnostics AG, Rotkreuz, Switzerland) and the respective cellular RNA large volume kit (Roche Diagnostics AG, Rotkreuz, Switzerland) from thawed samples diluted 1:1 with PBS. […] The resulting cDNA was diluted with 40 μL of H2O before using for qRT-PCR. qRT-PCR was performed by using the forward and the reverse primer, the corresponding Universal Probe Library (all from Microsynth, Balgach, Switzerland) and the Taqman Fast advanced master mix (Applied Biosystems), on an ABI 7900 machine (Applied Biosystems). qRT-PCR Ct-values for the respective P450s were put into relation to the Ct-value of RN18S1 (microsynth, Balgach, Switzerland) of the same sample. Doing so, a respective Δct-value was calculated. Using the average of all Δct-values for the vehicle control samples, a ΔΔct-value was calculated for each sample (ΔΔct-value(sample)=Δct-value(sample)−average of Δct-value of all vehicle controls). […] The individual fold induction values were then averaged per treatment condition (usually n=3 biological replicates).

human TLR8 = human TLR8 (Homo sapiens (Human), UniProt Q9NR97); experiment: HEK-Blue-hTLR8 cells assay and selectivity index; assay type: cell-based
Protocol: A stable HEK-Blue-hTLR8 cell line was purchased from InvivoGen (Cat.#: HEK-Blue-htlr8, San Diego, Calif., USA). These cells were designed for studying the stimulation of human TLR8 by monitoring the activation of NF-κB. […] Therefore the reporter expression was regulated by the NF-κB promoter upon stimulation of human TLR8 for 20 hrs. The cell culture supernatant SEAP reporter activity was determined using QUANTI-Blue™ kit (Cat.#: rep-qb1, Invivogen, San Diego, Ca, USA) at a wavelength of 640 nm, a detection medium that turns purple or blue in the presence of alkaline phosphatase.
HEK-Blue-hTLR8 cells were incubated at a density of 250,000˜450,000 cells/mL in a volume of 180 μL in a 96-well plate in Dulbecco's Modified Eagle's medium (DMEM) containing 4.5 g/L glucose, 50 U/mL penicillin, […], […], 2 mM L-glutamine, 10% (V/V) heat-inactivated fetal bovine serum for 24 hrs. Then the HEK-Blue-hTLR8 cells were incubated with addition of 20 μL test compound in a serial dilution in the presence of final DMSO at 1% and perform incubation under 37° C. in a CO2 incubator for 20 hrs. Then 20 μL of the supernatant from each well was incubated with 180 μL Quanti-blue substrate solution at 37° C. for 2 hours and the absorbance was read at 620˜655 nm using a spectrophotometer. The signalling pathway that TLR8 activation leads to downstream NF-κB activation has been widely accepted, and therefore similar reporter assay was also widely used for evaluating TLR8 agonist (Tsuneyasu Kaisho and Takashi Tanaka, Trends in Immunology, Volume 29, Issue 7, July 2008, […]; Hiroaki Hemmi et al, Nature Immunology 3, 196-200 (2002)).
The ratio of TLR8 agonism activity compared to TLR7 agonism activity was defined as the selectivity index (EC50 (TLR8) value/EC50(TLR7) value) and calculated accordingly.

[1] = Metabolic stability in human liver microsomes
Protocol: The human microsomal stability assay is used for early assessment of metabolic stability of a test compound in human liver microsomes.
Human liver microsomes (Cat. NO.: 452117, Corning, USA; Cat. NO.: H2610, Xenotech, USA) were preincubated with test compound for 10 minutes at 37° C. in 100 mM potassium phosphate buffer, pH 7.4. The reactions were initiated by adding NADPH regenerating system. The final incubation mixtures contained 1 μM test compound, 0.5 mg/mL liver microsomal protein, 1 mM MgCL2, 1 mM NADP, 1 unit/mL isocitric dehydrogenase and 6 mM isocitric acid in 100 mM potassium phosphate buffer, pH 7.4. After incubation times of 0, 3, 6, 9, 15 and 30 minutes at 37° C., 300 μL of cold ACN (including internal standard) was added to 100 μL incubation mixture to terminate the reaction. Following precipitation and centrifugation, the amount of compound remaining in the samples were determined by LC-MS/MS. Controls of no NADPH regenerating system at zero and 30 minutes were also prepared and analyzed.

[2] = rat, IV 1 mpk, data from WO2016023511, cited from earlier work
[3] = patients with chronic hepatitis B, phase Ib; cited from earlier work

human TLR7, sequence (Q9NYK1 27-1049): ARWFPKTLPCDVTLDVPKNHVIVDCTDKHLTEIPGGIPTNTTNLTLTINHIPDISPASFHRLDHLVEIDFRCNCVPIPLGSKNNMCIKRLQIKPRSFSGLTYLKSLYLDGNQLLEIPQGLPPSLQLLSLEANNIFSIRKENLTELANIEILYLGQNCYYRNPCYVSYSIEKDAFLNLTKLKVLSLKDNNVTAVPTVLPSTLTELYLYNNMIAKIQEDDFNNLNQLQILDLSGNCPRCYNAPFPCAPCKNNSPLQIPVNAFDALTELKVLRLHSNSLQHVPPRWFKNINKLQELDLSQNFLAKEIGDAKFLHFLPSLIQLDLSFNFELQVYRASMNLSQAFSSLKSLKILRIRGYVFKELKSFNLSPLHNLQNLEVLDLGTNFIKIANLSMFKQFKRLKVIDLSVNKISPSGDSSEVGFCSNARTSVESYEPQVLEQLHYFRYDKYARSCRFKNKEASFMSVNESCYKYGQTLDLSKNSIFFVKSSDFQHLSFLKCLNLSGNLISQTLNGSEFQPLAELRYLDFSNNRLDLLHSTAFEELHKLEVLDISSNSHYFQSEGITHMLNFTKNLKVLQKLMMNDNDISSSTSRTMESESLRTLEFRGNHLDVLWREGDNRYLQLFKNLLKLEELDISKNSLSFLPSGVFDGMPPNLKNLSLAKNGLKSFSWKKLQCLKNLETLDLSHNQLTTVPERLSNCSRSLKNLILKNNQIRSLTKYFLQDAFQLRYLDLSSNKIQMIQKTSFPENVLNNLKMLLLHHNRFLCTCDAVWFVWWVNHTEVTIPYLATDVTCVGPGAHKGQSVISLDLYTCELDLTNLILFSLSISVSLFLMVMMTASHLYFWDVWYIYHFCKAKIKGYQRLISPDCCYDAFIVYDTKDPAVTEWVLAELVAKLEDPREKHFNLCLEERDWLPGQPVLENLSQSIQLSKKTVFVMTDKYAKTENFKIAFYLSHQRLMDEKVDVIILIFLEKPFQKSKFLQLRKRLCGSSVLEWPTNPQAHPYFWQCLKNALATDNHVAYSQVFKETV
human TLR8, sequence (Q9NR97 27-1041): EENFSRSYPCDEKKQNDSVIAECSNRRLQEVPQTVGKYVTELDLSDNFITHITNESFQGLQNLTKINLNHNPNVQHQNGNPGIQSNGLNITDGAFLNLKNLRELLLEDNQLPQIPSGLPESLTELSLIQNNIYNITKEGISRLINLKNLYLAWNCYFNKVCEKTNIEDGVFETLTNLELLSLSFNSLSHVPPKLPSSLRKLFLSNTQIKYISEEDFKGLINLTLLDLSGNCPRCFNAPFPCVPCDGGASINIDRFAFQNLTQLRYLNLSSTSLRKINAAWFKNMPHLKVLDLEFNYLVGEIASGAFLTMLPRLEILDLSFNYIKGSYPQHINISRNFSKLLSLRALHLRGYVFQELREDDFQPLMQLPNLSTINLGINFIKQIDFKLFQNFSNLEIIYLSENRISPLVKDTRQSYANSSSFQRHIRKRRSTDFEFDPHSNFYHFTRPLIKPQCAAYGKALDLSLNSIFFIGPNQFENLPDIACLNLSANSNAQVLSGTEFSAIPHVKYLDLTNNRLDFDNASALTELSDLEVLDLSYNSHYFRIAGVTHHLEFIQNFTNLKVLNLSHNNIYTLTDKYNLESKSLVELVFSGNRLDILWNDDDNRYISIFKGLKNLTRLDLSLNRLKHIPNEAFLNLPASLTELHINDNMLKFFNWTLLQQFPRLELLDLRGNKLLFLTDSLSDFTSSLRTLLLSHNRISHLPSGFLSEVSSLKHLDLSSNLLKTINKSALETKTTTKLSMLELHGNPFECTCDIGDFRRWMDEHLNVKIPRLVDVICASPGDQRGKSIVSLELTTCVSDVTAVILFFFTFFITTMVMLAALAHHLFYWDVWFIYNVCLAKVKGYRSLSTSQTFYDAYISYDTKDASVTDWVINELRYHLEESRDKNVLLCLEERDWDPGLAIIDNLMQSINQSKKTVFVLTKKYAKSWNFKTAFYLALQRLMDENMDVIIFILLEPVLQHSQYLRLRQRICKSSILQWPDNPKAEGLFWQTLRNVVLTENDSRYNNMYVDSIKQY

| SMILES | EC50 (human TLR7) [µM] | solubility thermodynamic (LYSA solubility) [µg/mL] | Relative induction of Positive control (10 μM Rifampicin) (%) (CYP3A4) | EC50 (human TLR8) [nM] | Selective index (human TLR8; EC50(TLR8) value/EC50(TLR7) value) | Human Liver Microsome Clearance ([1]; 1 μM test compound, 0.5 mg/mL microsomal protein, 6.15 mL/min/kg is the limitation of assay sensitivity) [mL/min/kg] | Human liver microsome clearance category ([1]; categorized low/medium/high) | Mean plasma concentration ([2]; 0.083 h) [nM] | Mean plasma concentration ([2]; 0.25 h) [nM] | Mean plasma concentration ([2]; 0.5 h) [nM] | Mean plasma concentration ([2]; 1 h) [nM] | Mean plasma concentration ([2]; 2 h) [nM] | Mean plasma concentration ([2]; 4 h) [nM] | Mean plasma concentration ([2]; 8 h) [nM] | CO [2] [nM] | ISG15 mRNA induction [3] | Safety and tolerability [3] |
| --- | --- | --- | --- | --- | --- | --- | --- | --- | --- | --- | --- | --- | --- | --- | --- | --- | --- |
| CCCS(=N)(=O)c1nc(N)c2[nH]c(=O)n(Cc3ccc(F)cc3)c2n1 (stereo not drawn) [Example 24, 6-Amino-9-[(4-fluorophenyl)methyl]-2-(propylsulfonimidoyl)-7H-purin-8-one] | 0.037 | 12 (≈ 32.9 µM) | −0.72 |  |  |  |  |  |  |  |  |  |  |  |  |  |  |
| CCCCOc1nc(N)c2c(n1)N(Cc1cccc(CN3CCCC3)c1)CC(=O)N2 [GS-9620] | 0.8 |  |  | 11600 | 14 | 17.8 | high (high (16.2-23.2 mL/min/kg)) | 170 | 102 | 65.4 | 48.1 | 21.6 | 13 | 4.17 | 220 | dose-dependent ISG15 mRNA induction | safe, well tolerated |
